We go through 18 compounds from patent US8288549B2, “Glycine B antagonist” (Merz Pharma GmbH & Co. KGaA, priority 2008, dated 2012).

Structures can show the parent of a compound that is named as a salt.

`O=C(O)c1cc2cc(Cl)ccc2nc1NC(Cc1ccc(C#Cc2ccccc2)cc1)C(=O)O` (stereo not drawn) [Example 62, 2-[1-Carboxy-2-(4-phenylethynyl-phenyl)-ethylamino]-6-chloro-quinoline-3-carboxylic acid] showed a melting point of 164 to 173 °C.
`O=C(O)c1cc2cc(Cl)ccc2nc1NC(COCc1ccccc1)C(=O)Nc1ccccc1` (stereo not drawn) [Example 117, 2-(2-Benzyloxy-1-phenylcarbamoyl-ethylamino)-6-chloro-quinoline-3-carboxylic acid] came in with a melting point of 150 to 151 °C.
On to `O=C(O)c1cc2ccccc2nc1N[C@H](Cc1ccccc1)C(=O)O` [Example 44, 2-((R)-1-Carboxy-2-phenyl-ethylamino)-quinoline-3-carboxylic acid], for which the melting point is 140 to 141.5 °C.
In turn, `Nc1cc(C[C@H](Nc2nc3ccc(Cl)cc3cc2C(=O)O)C(=O)O)ccc1O` returned a melting point above 250 °C.
In the case of `COc1ccc(Cl)c(CC(Nc2nc3ccc(Cl)cc3cc2C(=O)O)C(=O)O)c1` (stereo not drawn) [Example 68, 2-[1-Carboxy-2-(2-chloro-5-methoxy-phenyl)-ethylamino]-6-chloro-quinoline-3-carboxylic acid], the melting point was in the range of 180 to 185 °C.
The compound `Br.Br.NCCCC[C@H](Nc1nc2ccc(Cl)cc2cc1C(=O)O)C(=O)O` gave a melting point of 174 to 182 °C.
Consider `O=C(O)c1cc2cc(Cl)ccc2nc1NC(C(=O)O)C(C(=O)O)c1cc(F)cc(F)c1` (stereo not drawn) [Example 136, 2-(3-Carboxy-6-chloro-quinolin-2-ylamino)-3-(3,5-difluoro-phenyl)-succinic acid], for which the melting point is 230 to 250 °C (dec.).
With `Nc1ccc(CC(Nc2nc3ccc(Cl)cc3cc2C(=O)O)C(=O)O)cc1` (stereo not drawn), the melting point is > 250 °C (dec.).
For `O=C(O)c1cc2cc(Cl)ccc2nc1N[C@@H](Cc1ccc(Oc2ncccc2C(=O)O)cc1)C(=O)O` (as salt: salt) [Example 100, 2-{(S)-1-Carboxy-2-[4-(3-carboxy-pyridin-2-yloxy)-phenyl]-ethylamino}-6-chloro-quinoline-3-carboxylic acid], the melting point is > 166 °C (dec.).
`O=C(O)c1cc2cc(Cl)ccc2nc1NC(CCc1ccccc1)C(=O)O` (stereo not drawn) [Example 28, 2-(1-Carboxy-3-phenyl-propylamino)-6-chloro-quinoline-3-carboxylic acid]: the melting point is 179 to 182 °C (dec.).
The value for `O=C(O)c1cc2cc(Cl)ccc2nc1NC(Cc1cccnc1)C(=O)O` (stereo not drawn) was > 170 °C (dec.); that for `O=C(O)c1cccc(CC(Nc2nc3ccc(Cl)cc3cc2C(=O)O)C(=O)O)c1` (stereo not drawn) was > 250 °C (dec.); that for `O=C(O)c1cc2cc(Cl)ccc2nc1NC(Cc1cccs1)C(=O)O` (stereo not drawn) [Example 83, 2-(1-Carboxy-2-thiophen-2-yl-ethylamino)-6-chloro-quinoline-3-carboxylic acid] was > 250 °C (dec.).
`Cc1cc(C)n(CC(Nc2nc3ccc(Cl)cc3cc2C(=O)O)C(=O)O)n1` (stereo not drawn) [Example 57, 2-[1-Carboxy-2-(3,5-dimethyl-pyrazol-1-yl)-ethylamino]-6-chloro-quinoline-3-carboxylic acid]: the melting point is > 200 °C (dec.).
As to `O=C(O)c1cc2cc(Cl)ccc2nc1NC(Cc1ccc(O)c(F)c1)C(=O)O` (stereo not drawn) [Example 52, 2-[1-Carboxy-2-(3-fluoro-4-hydroxy-phenyl)-ethylamino]-6-chloro-quinoline-3-carboxylic acid], the melting point was > 160 °C (dec.).
In turn, `O=C(O)c1cc2cc(Cl)ccc2nc1NC(Cc1cccc(F)c1)C(=O)O` (stereo not drawn) came in with a melting point of 177 to 181 °C.
Turning to `COc1cccc(CC(Nc2nc3ccc(Cl)cc3cc2C(=O)O)C(=O)O)c1` (stereo not drawn), the melting point was 165 to 170 °C (dec.).
On to `O=C(O)c1cc2cc(Cl)ccc2nc1NC(Cc1cccc(Oc2nc3ccc(Cl)cc3cc2C(=O)O)c1)C(=O)O` (stereo not drawn) [Example 81, 2-{2-[3-(3-carboxy-6-chloro-quinolin-2-yloxy)-phenyl]-1-carboxy-ethylamino}-6-chloro-quinoline-3-carboxylic acid], for which the melting point was 186 to 197 °C (dec.).
